“Also recorded” adds a separate entry of the source.
Columns and labels:
cardiac myocytes = conditions: cited from earlier work
cardiovascular functions [1] = conditions: anesthetized rats; cited from earlier work
cardiovascular functions [2] = conditions: squirrel monkeys; cited from earlier work
[3] = conscious rats; cited from earlier work
Aβ(1-40) peptide [4] = biological target: T1, Aβ(1-40) peptide (Homo sapiens, UniProt P05067); assay: Thioflavin T fluorescence assay of Aβ(1-40) peptide aggregation; conditions: for effect on Aβ(1-40) peptide aggregation: different concentrations of ligand
T1 sequence (P05067 672-711 limits assumed): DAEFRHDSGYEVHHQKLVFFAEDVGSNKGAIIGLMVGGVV

Aβ(1-40) peptide [5] = biological target: T1, Aβ(1-40) peptide; assay: Electrophoretic mobility shift (gel-shift) binding assay with [3H]-cocaine; conditions: 7-μM [3H]-cocaine, 125-μM Aβ(1-40), pH 7.4; preliminary results
Description: The gel was cast in a vertical electrophoresis system of dimensions 7×8×0.15 cm and run at 100 V for 2 hr at room temperature. Lane I contains 7-μM [^3H]-cocaine only and Lane II contains 7-μM [^3H]-cocaine and 125-μM Aβ(1-40) peptide. The gel was then phosphor imaged; the contrast of the image was enhanced using ImageJ 1.34, in the process of which the contrast of the band streaks compared to background was lost. The square boxes correspond to the free [^3H]-cocaine trapped in the well; the circle corresponds to the [^3H]-cocaine bound to Aβ(1-40). […] The position of the peptide corresponded to the [^3H]-cocaine bound to Aβ(1-40) (circle) in the phosphorimage in FIG. 3A.
On the other hand, the theoretical isolectric point of the Aβ(1-40) peptide is 5.37 (Wiltfang et al., “Highly Conserved and Disease-Specific Patterns of Carboxyterminally Truncated Aβ Peptides 1-37/38/39 in Addition to 1-40/42 in Alzheimer's Disease and in Patients with Chronic Neuroinflammation,” J. Neurochem. 81:481-496 (2002), which is hereby incorporated by reference in its entirety). […] The imaging plate is then scanned by using a Molecular Dynamics Storm 860 PhosphorImager, and band intensities are quantified by using the IMAGEQUANT software from Molecular Dynamics. […]

[6] = biological target: nicotinic acetylcholine receptor (Mus musculus, UniProt P02716+P04756+P04760+P09690); conditions: cited from earlier work
Chain of nicotinic acetylcholine receptor (P04756 21-457): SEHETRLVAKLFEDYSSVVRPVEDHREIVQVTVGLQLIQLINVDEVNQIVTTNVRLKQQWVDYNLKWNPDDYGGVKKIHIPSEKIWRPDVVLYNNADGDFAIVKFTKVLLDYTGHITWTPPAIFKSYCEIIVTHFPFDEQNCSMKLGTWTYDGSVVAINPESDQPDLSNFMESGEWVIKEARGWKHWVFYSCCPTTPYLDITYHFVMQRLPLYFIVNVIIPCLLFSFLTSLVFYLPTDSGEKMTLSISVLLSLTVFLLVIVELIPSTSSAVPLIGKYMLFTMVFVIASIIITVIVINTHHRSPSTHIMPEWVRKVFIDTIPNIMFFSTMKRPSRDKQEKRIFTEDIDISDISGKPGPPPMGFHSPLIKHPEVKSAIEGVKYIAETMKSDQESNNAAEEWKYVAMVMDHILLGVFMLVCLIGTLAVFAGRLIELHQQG
Chain of nicotinic acetylcholine receptor (P09690 24-501): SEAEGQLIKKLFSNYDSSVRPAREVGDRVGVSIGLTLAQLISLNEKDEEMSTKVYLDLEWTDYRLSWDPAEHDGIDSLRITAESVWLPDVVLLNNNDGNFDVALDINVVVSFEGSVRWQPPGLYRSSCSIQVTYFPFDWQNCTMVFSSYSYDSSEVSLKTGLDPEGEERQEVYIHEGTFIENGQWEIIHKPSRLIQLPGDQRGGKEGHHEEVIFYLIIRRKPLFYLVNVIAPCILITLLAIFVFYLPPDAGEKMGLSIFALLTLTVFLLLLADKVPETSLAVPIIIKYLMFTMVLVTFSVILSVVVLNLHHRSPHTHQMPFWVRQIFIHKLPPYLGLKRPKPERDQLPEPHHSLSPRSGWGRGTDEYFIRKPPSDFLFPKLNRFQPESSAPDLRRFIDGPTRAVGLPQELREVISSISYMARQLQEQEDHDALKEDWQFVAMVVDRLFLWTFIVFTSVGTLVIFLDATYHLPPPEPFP
Chain of nicotinic acetylcholine receptor (P04760 23-519): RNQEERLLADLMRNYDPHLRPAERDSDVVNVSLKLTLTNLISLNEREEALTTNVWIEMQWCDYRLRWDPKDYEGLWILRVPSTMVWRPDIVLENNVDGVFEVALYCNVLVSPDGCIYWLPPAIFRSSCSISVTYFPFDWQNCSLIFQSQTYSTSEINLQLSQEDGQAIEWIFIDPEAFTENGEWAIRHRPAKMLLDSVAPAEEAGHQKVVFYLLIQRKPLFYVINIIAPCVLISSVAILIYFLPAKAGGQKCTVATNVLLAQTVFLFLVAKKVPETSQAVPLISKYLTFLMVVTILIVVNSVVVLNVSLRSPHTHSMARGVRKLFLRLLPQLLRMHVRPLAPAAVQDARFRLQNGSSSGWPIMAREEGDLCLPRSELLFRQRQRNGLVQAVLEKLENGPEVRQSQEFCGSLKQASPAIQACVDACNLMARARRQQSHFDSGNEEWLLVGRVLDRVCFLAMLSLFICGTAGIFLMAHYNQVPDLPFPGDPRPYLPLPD
Chain of nicotinic acetylcholine receptor (P02716 25-520): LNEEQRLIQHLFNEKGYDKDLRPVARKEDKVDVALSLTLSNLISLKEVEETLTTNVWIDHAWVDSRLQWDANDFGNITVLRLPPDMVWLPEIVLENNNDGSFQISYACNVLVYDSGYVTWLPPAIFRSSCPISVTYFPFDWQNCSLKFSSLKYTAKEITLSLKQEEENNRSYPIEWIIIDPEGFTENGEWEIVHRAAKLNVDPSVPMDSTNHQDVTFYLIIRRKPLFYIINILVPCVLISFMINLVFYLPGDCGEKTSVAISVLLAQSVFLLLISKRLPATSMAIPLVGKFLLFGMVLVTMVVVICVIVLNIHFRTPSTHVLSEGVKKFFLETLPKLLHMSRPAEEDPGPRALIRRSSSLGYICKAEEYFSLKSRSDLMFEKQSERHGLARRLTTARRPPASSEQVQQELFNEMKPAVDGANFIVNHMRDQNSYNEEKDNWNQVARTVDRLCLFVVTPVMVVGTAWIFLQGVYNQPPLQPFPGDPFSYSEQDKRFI

[7] = biological target: T2, muscle type nicotinic acetylcholine receptor expressed in BC3H1 cells (Mus musculus, UniProt P02716+P04756+P04760+P09690); assay: Whole-cell current recording, cell-flow technique, carbamoylcholine-induced currents; assay type: cell-based; conditions: 100-μM carbamoylcholine, listed as B55
T2 construct: nicotinic acetylcholine receptors expressed on the surface of BC3H1 cells; endogenous in cells; host or cells: BC3H1 cells
T2 sequence (P04756 21-457): as the sequence (P04756 21-457) above
T2 sequence (P09690 24-501): as the sequence (P09690 24-501) above
T2 sequence (P04760 23-519): as the sequence (P04760 23-519) above
T2 sequence (P02716 25-520): as the sequence (P02716 25-520) above
Description: Experiments were conducted at ˜22° C., −60 mV, and pH 7.4. The currents were induced by application of 100-μM carbamoylcholine only (lighter rising and falling line) or by a 2-second preincubation of the cells with 1-μM aptamer B55 followed by coapplication of the aptamer (at the same concentration used in preincubation) with 100-μM carbamoylcholine for 6 s (darker rising and falling line). The upper traces parallel to the abscissa represent the current amplitudes corrected for receptor desensitization that occurs during the rising phase. […] AO is the maximum current amplitude in the presence of 100-μM carbamoylcholine, and AI the maximum current amplitude in the presence of the same concentration of carbamoylcholine and different concentrations of aptamer B55. The whole-cell current was corrected for receptor desensitization. Each data point is the average of 2-4 measurements with at least two cells.
Carbamoylcholine-induced currents were recorded using the whole-cell configuration at room temperature (22-23° C.), pH 7.4, and a transmembrane voltage of −60 mV. The currents were amplified using an Axopatch 200B amplifier (Axon Instruments, Union City, Calif.) and filtered at 1 kHz (using a four-pole low-pass Bessel filter incorporated in the Axopatch 200B amplifier). […]

Aβ(1-40) peptide [8] = biological target: T1, Aβ(1-40) peptide; conditions: Ylera et al. 2002; read-out: Kd(amyloid) for the Aβ(1-40) peptide; cited from earlier work

COC(=O)C1C(O)CC2CCC1N2C (stereo not shown)
concentration with no effect on cardiovascular functions in vitro (cardiac myocytes): up to 100 μM
dose with no effect on cardiovascular functions in vivo, i.v. infusion (cardiovascular functions [1]): up to 1.5 mg/kg/min
dose with no effect on cardiovascular functions in vivo, i.v. bolus (cardiovascular functions [2]): up to 10 mg/kg
brain tissue concentration corresponding to the lowest toxic daily dose [3]: 478.43±57.89
effect on Aβ(1-40) peptide aggregation (Aβ(1-40) peptide [4]; 50-μM Aβ(1-40), 37° C., 2 days): inhibit aggregation of Aβ(1-40) in a dose-dependent manner; also recorded: dose-dependent inhibition
concentration required to abolish the aggregation of Aβ(1-40) in the brain (estimated therapeutic concentration) (Aβ(1-40) peptide [4]; order-of-magnitude approximation calculated from FIG. 4A and CSF Aβ(1-40) concentration): ~40 ng/g

C[C@]12N[C@H](Cc3ccccc31)c1ccccc12 [MK-801, dizocilpine, reference compound]
effect on Aβ(1-40) peptide aggregation (Aβ(1-40) peptide [4]; 50-μM Aβ(1-40), 37° C., 2 days): inhibit aggregation of Aβ(1-40) in a dose-dependent manner; also recorded: dose-dependent inhibition

c1ccc(C2(N3CCCCC3)CCCCC2)cc1 [PCP, phencyclidine, reference compound]
effect on Aβ(1-40) peptide aggregation at 1 mM (Aβ(1-40) peptide [4]; 1-mM PCP, 50-μM Aβ(1-40), 37° C., 2 days): abrogates Aβ aggregation; also recorded: abolished amyloid aggregation

COC(=O)C1=CC(=O)C2CC(S(=O)(=O)c3ccccc3)C1N2C (stereo not shown) [RCS-III-140A]
effect on Aβ(1-40) peptide aggregation (Aβ(1-40) peptide [4]; 50-μM Aβ(1-40), 37° C., 2 days): inhibit aggregation

CN1C2CC(S(=O)(=O)c3ccccc3)C1C(C(=O)[O-])=CC2=O.[Li+] (stereo not shown) [RCS-III-143]
effect on Aβ(1-40) peptide aggregation (Aβ(1-40) peptide [4]; 50-μM Aβ(1-40), 37° C., 2 days): inhibit aggregation

COC(=O)C1=C(c2ccccc2)C(=O)C2CC(S(=O)(=O)c3ccccc3)C1N2C (stereo not shown) [RCS-III-202A]
effect on Aβ(1-40) peptide aggregation (Aβ(1-40) peptide [4]; 50-μM Aβ(1-40), 37° C., 2 days): inhibit aggregation

CN1C2CC(S(=O)(=O)c3ccccc3)C1C(C(=O)[O-])=C(c1ccccc1)C2=O.[Li+] (stereo not shown) [RCS-III-218]
effect on Aβ(1-40) peptide aggregation (Aβ(1-40) peptide [4]; 50-μM Aβ(1-40), 37° C., 2 days): inhibit aggregation

CN1C2CCC1C(C(=O)O)C(c1ccc(Cl)cc1)C2 (stereo not shown) [RTI-4229-70]
effect on Aβ(1-40) peptide aggregation (Aβ(1-40) peptide [4]; 50-μM Aβ(1-40), 37° C., 2 days): dose-dependent inhibition
effect on Aβ(1-40) peptide aggregation (Aβ(1-40) peptide [4]; 50-μM Aβ(1-40), 37° C., 2 days, listed as RTI 4220-70): inhibit aggregation of Aβ(1-40) in a dose-dependent manner

COC(=O)C1C(OC(=O)c2ccccc2)CC2CCC1N2C (stereo not shown) [cocaine]
binding of cocaine to the Aβ(1-40) peptide (Aβ(1-40) peptide [5]): binds; also recorded: direct binding
effect on Aβ(1-40) peptide aggregation (Aβ(1-40) peptide [4]; 50-μM Aβ(1-40), 37° C., 2 days): dose-dependent inhibition

CN1C2CCC1C(C(=O)O)C(O)C2 (stereo not shown) [ecgonine]
effect on Aβ(1-40) peptide aggregation (Aβ(1-40) peptide [4]; 50-μM Aβ(1-40), 37° C., 2 days): inhibit aggregation of Aβ(1-40) in a dose-dependent manner; also recorded: dose-dependent inhibition

COC(=O)C1C(OC(C)=O)CC2CCC1N2C (stereo not shown) [reference compound]
alleviation of cocaine inhibition of the nicotinic acetylcholine receptor [6]: does not alleviate cocaine inhibition
effect on Aβ(1-40) peptide aggregation (Aβ(1-40) peptide [4]; 50-μM Aβ(1-40), 37° C., 2 days): does not inhibit aggregation; also recorded: dose-dependent acceleration

UUCACCG ((i.e., UUCACCG); as printed in the source, key not given here)
effect on Aβ(1-40) peptide aggregation at 500 μM (Aβ(1-40) peptide [4]; 500-μM oligonucleotide, 50-μM Aβ(1-40), 37° C., 2 days): abolished amyloid aggregation

B1: 5′-UUUACCGUAAGGCCUGUCUUCGUUUGACAGCGGCUUGUUGACCCUCACACUUUGUACCUGCUGCCAA-3′ (nucleic acid)
chain: UUUACCGUAAGGCCUGUCUUCGUUUGACAGCGGCUUGUUGACCCUCACACUUUGUACCUGCUGCCAA
modifications: chemistry not given here
inhibition of carbamoylcholine-induced currents from the nicotinic acetylcholine receptor [7]: inhibited carbamoylcholine-induced currents from the nicotinic acetylcholine receptor in a dose-dependent manner; also recorded: inhibition
Kd (Aβ(1-40) peptide [8]): 29 nM

Source: patent US9233106B2, “Inhibition of beta-amyloid peptide aggregation” (CORNELL RESEARCH FOUNDATION, INC., priority 2006, dated 2016)
